From patent US5869490A, “Azaheterocyclymethyl derivatives of 2,3,8,9-tetrahydro-7h-1,4-dioxino (2,3-e) indol-8-one” (American Home Products Corporation, priority 1997, dated 1999)
pIC50: −log10 of the molar value. Where two headings read alike, the source gives them in different places.

Molecular target: T1, dopamine D2 receptor (Rattus norvegicus, UniProt P61169)
T1 construct: homogenized rat striatal brain tissue; from tissue; host or cells: rat striatum homogenate
Assay: Affinity for the dopamine D2 receptor (3H-quinpirole, rat striatal homogenate)
Assay type: binding
Settings: for IC50: rat striatal brain tissue homogenate, 3H-quinpirole, read-out: D2 Receptor Affinity (IC50 (nM))
Method: Affinity for the dopamine D2 receptor was established by a modification of the standard experimental test procedure of Seemen and Schaus, European Journal of Pharmacology 203: 105-109, 1991, wherein homogenized rat striatal brain tissue is incubated with ^3 H-quinpirole and various concentrations of test compound, filtered and washed and counted in a Betaplate scintillation counter.

T1 sequence (P61169 whole entry): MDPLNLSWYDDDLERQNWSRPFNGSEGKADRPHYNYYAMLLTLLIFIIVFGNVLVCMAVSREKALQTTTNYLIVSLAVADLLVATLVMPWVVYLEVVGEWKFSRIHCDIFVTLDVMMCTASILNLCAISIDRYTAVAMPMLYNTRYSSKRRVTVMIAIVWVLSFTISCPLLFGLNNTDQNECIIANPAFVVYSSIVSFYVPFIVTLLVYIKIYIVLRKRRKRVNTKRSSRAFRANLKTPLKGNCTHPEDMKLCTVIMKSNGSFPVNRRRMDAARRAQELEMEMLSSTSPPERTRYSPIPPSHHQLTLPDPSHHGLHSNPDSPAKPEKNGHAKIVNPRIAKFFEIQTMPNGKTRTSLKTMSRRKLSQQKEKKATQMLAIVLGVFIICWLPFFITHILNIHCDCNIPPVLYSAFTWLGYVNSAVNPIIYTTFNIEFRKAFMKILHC

Compound | IC50 | pIC50
O=C1Cc2c(ccc3c2O[C@@H](CN2CCc4ccccc4C2)CO3)N1 [Example 1, 2-(3,4-Dihydro-1H-isoguinolin-2-ylmethyl)-2,3,8,9-tetrahydro-7H-1,4-dioxino[2,3-e]indol-8-one] | 0.35 nM | –
O=C1Cc2c(ccc3c2O[C@@H](CN2CCC(C(=O)c4ccc(F)cc4)CC2)CO3)N1 [Example 2, 2-(4-(4-Fluoro-benzoyl)-piperidin-1-ylmethyl]-2,3,8,9-tetrahydro-7H-1,4-dioxino[2,3-e]indol-8-one] | 0.73 nM | –
O=C1Cc2c(ccc3c2O[C@@H](CN2CCC4(CC2)C(=O)NCN4c2ccccc2)CO3)N1 [Example 3, 2-(4-Oxo-1-phenyl-1,3,8-triaza-spiro[4,5]dec-8-ylmethyl)-2,3,8,9-tetrahydro-7H-1,4-dioxino-[2,3-e]indol-8-one] | – | 8.49
O=C1Cc2c(ccc3c2O[C@@H](CN2CCC(n4c(=O)[nH]c5ccccc54)CC2)CO3)N1 [Example 4, 2-[4-(2-Oxo-2,3-dihydro-benzimidazol-1-yl)-piperidin-1-ylmethyl]-2,3,8,9-tetrahydro-7H-1,4-dioxino[2,3-e]indol-8-one] | – | 8.39
O=C1Cc2c(ccc3c2O[C@@H](CN2CC=C(c4ccccc4)CC2)CO3)N1 [Example 5, 2-(4-Phenyl-3,6-dihydro-2H-pyridin-1-ylmethyl)-2,3,8,9-tetrahydro-7H-1,4-dioxino[2,3-e]indol-8-one] | – | 8.92
O=C1Cc2c(ccc3c2O[C@@H](CN2CCN(c4cccc5[nH]ccc45)CC2)CO3)N1 [Example 6, 2-[4-(1H-Indol-4-yl)-piperazin-1-ylmethyl]-2,3,8,9-tetrahydro-7H-1.4-dioxino[2.3-e]indol-8-one] | 4.06 nM | –
O=C1Cc2c(c(F)cc3c2O[C@@H](CN2CCc4ccccc4C2)CO3)N1 [Example 7, 2-(3,4-Dihydro-1H-isoguinolin-2-ylmethyl)-6-fluoro-2,3,8,9-tetrahydro-7H-1,4-dioxino[2,3-e]indol-8-one] | 0.23 nM | –
